PubChem BioAssay (NCI)
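These data come from cells grown in 96-well plates and exposed to compound for 48 hours at five concentrations. Definition used: TGI = concentration required for complete inhibition of growth.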

Experiments:
Experiment in all cases: growth of human tumour cells (NCI), 48 h
[1] = test system: DU-145 prostate
[2] = test system: SK-MEL-28 melanoma
[3] = test system: OVCAR-5 ovarian
[4] = test system: HS 578T breast
[5] = test system: A498 renal
[6] = test system: MDA-N
[7] = test system: NCI-H23 lung
[8] = test system: NCI-H522 lung
[9] = test system: TK-10 renal
[10] = test system: MCF7 breast
[11] = test system: CAKI-1 renal
[12] = test system: UACC-62 melanoma
[13] = test system: HOP-92 NSCLC
[14] = test system: EKVX NSCLC
[15] = test system: OVCAR-3 ovarian
[16] = test system: A549 NSCLC
[17] = test system: T-47D breast
[18] = test system: SNB-19 CNS
[19] = test system: SK-MEL-5 melanoma
[20] = test system: MDA-MB-231 breast
[21] = test system: SR leukemia
[22] = test system: UACC-257 melanoma
[23] = test system: HL-60(TB) leukemia
[24] = test system: RPMI-8226 leukemia
[25] = test system: ACHN renal
[26] = test system: OVCAR-8 ovarian
[27] = test system: CCRF-CEM leukemia
[28] = test system: SK-OV-3 ovarian
[29] = test system: SF-268 CNS
[30] = test system: K-562 leukemia
[31] = test system: U251 CNS
[32] = test system: PC-3 prostate
[33] = test system: SW-620 colon
[34] = test system: RXF 393 renal
[35] = test system: MDA-MB-435
[36] = test system: COLO 205 colon
[37] = test system: 786-0 renal
[38] = test system: SN12C renal
[39] = test system: LOX IMVI melanoma
[40] = test system: IGROV1 ovarian
[41] = test system: SK-MEL-2 melanoma
[42] = test system: KM12 colon
[43] = test system: M14 melanoma
[44] = test system: HCT-116 colon
[45] = test system: OVCAR-4 ovarian
[46] = test system: SNB-75 CNS
[47] = test system: SF-539 CNS
[48] = test system: SF-295 CNS
[49] = test system: UO-31 renal
[50] = test system: HT29 colon
[51] = test system: MOLT-4 leukemia
[52] = test system: HOP-62 NSCLC
[53] = test system: HCT-15 colon
[54] = test system: HCC-2998 colon
[55] = test system: NCI-H460 lung
[56] = test system: NCI-H226 lung

**Q.** For `CC(=O)/C=C/C=C(\C)CC/C=C(\C)CC(C)C`, which TGI [1] is on record?
**A.** > 100 µM

**Q.** What about the TGI [2] of the same compound?
**A.** > 100 µM

**Q.** What about the TGI [3] of the same compound?
**A.** > 100 µM

**Q.** And the TGI [4]?
**A.** > 100 µM

**Q.** And the TGI [5]?
**A.** 83.3 µM

**Q.** What about the TGI [6] of the same compound?
**A.** > 100 µM

**Q.** What about the TGI [7] of the same compound?
**A.** 54.9 µM

**Q.** And the TGI [8]?
**A.** 42.6 µM

**Q.** And the TGI [9]?
**A.** > 100 µM

**Q.** And the TGI [10]?
**A.** 57.9 µM

**Q.** What about the TGI [11] of the same compound?
**A.** > 100 µM

**Q.** What about the TGI [12] of the same compound?
**A.** 49.2 µM

**Q.** And the TGI [13]?
**A.** 27.4 µM

**Q.** And the TGI [14]?
**A.** > 100 µM

**Q.** What about the TGI [15] of the same compound?
**A.** 78.7 µM

**Q.** And the TGI [16]?
**A.** > 100 µM

**Q.** And the TGI [17]?
**A.** 46 µM

**Q.** And the TGI [18]?
**A.** > 100 µM

**Q.** And the TGI [19]?
**A.** 35.5 µM

**Q.** What about the TGI [20] of the same compound?
**A.** > 100 µM

**Q.** What about the TGI [21] of the same compound?
**A.** 39.1 µM

**Q.** And the TGI [22]?
**A.** 60 µM

**Q.** What about the TGI [23] of the same compound?
**A.** 33.4 µM

**Q.** And the TGI [24]?
**A.** 38.4 µM

**Q.** And the TGI [25]?
**A.** > 100 µM

**Q.** What about the TGI [26] of the same compound?
**A.** 65.8 µM

**Q.** What about the TGI [27] of the same compound?
**A.** 37 µM

**Q.** What about the TGI [28] of the same compound?
**A.** > 100 µM

**Q.** And the TGI [29]?
**A.** > 100 µM

**Q.** And the TGI [30]?
**A.** 56.8 µM

**Q.** And the TGI [31]?
**A.** 87.7 µM

**Q.** What about the TGI [32] of the same compound?
**A.** > 100 µM

**Q.** What about the TGI [33] of the same compound?
**A.** 35.3 µM

**Q.** And the TGI [34]?
**A.** 30.3 µM

**Q.** What about the TGI [35] of the same compound?
**A.** 77.1 µM

**Q.** What about the TGI [36] of the same compound?
**A.** 39 µM

**Q.** And the TGI [37]?
**A.** 97.3 µM

**Q.** What about the TGI [38] of the same compound?
**A.** 96.2 µM

**Q.** What about the TGI [39] of the same compound?
**A.** 34 µM

**Q.** And the TGI [40]?
**A.** > 100 µM

**Q.** What about the TGI [41] of the same compound?
**A.** 42.3 µM

**Q.** What about the TGI [42] of the same compound?
**A.** 95.3 µM

**Q.** And the TGI [43]?
**A.** > 100 µM

**Q.** What about the TGI [44] of the same compound?
**A.** 62.8 µM

**Q.** And the TGI [45]?
**A.** > 100 µM

**Q.** And the TGI [46]?
**A.** 98.8 µM

**Q.** And the TGI [47]?
**A.** 46.8 µM

**Q.** And the TGI [48]?
**A.** > 100 µM

**Q.** And the TGI [49]?
**A.** > 100 µM

**Q.** What about the TGI [50] of the same compound?
**A.** > 100 µM

**Q.** And the TGI [51]?
**A.** 41.9 µM

**Q.** And the TGI [52]?
**A.** > 100 µM

**Q.** And the TGI [53]?
**A.** 30.6 µM

**Q.** What about the TGI [54] of the same compound?
**A.** 34.7 µM

**Q.** What about the TGI [55] of the same compound?
**A.** > 100 µM

**Q.** And the TGI [56]?
**A.** 68.6 µM
